Among the data in US7951829B2, “Benzimidazole modulators of VR1” (Janssen Pharmaceutica NV, priority 2006, dated 2011) are IC50, inhibition and Ki values, retold here.

Assay [1] concerns the target T1, hVR1 (Homo sapiens, UniProt Q8NER1).
T1 construct: expressed in transfected cells; host or cells: HEK293
The experiment in a line: Human VR1 (hVR1) Functional Assay (FLIPR intracellular calcium, capsaicin challenge). It counts as cell-based. Conditions: capsaicin 0.030 μM, HEK293 cells expressing hVR1; for inhibition at 1 µM: test concentration 1 μM. Background: Calcium flux is commonly read through the fluorescence of an indicator in the cells.

The target of assay [2] is T1, hVR1. The assay can be described thus: Human VR1 (hVR1) Binding Assay ([3H] RTX binding). To be noted: inhibition of [3H] RTX binding, membranes of HEK293 cells transfected with hVR1.

Structures are written as SMILES.

T1 sequence (Q8NER1 whole entry): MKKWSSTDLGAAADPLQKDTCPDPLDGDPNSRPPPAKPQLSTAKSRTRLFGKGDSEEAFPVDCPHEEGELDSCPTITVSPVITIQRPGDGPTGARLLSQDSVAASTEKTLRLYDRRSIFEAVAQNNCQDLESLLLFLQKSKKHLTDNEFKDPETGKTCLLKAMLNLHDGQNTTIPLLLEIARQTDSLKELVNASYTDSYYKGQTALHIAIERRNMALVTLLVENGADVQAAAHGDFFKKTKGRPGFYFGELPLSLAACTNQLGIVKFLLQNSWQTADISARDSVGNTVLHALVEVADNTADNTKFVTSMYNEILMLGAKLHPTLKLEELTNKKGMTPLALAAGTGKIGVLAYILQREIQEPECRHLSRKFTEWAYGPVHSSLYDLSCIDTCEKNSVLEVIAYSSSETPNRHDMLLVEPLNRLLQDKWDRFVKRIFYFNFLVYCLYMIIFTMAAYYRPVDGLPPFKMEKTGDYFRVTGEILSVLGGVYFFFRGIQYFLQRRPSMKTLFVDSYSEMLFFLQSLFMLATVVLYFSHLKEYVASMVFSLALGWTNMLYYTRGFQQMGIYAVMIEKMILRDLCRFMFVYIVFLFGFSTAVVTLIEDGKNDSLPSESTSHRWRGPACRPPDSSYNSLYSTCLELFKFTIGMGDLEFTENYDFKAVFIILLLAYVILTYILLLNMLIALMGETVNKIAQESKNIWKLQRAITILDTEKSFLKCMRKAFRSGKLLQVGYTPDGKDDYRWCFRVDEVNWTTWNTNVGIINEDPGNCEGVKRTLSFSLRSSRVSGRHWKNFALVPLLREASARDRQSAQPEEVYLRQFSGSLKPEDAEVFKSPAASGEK

For the compound `CC(=O)c1ccccc1-c1ccc2[nH]c(/C=C/c3ccc(C(C)(C)C)cc3)nc2c1` [Cpd 1, (E)-1-(2-{2-[2-(4-tert-butyl-phenyl)-vinyl]-1H-benzimidazol-5-yl}-phenyl)-ethanone], at hVR1 [1], the concentration for half-maximal inhibition (IC50) (commonly the concentration that gives 50% inhibition) turned out to be 27 nM and the inhibition (commonly how much of the control response was suppressed) at 1 µM was 100%. The affinity on hVR1 [2], expressed as Ki, was 9.7 nM.

Consider `Oc1ccccc1-c1ccc2[nH]c(/C=C/c3ccc(SC(F)(F)F)cc3)nc2c1` [Cpd 36, (E)-2-{2-[2-(4-trifluoromethylsulfanyl-phenyl)-vinyl]-1H-benzimidazol-5-yl}-phenol], for which, at hVR1 [1], the inhibition at 1 µM was 44%. Also, the Ki (as a rule, a dissociation constant, usually derived from enzyme kinetics or from competition with a known ligand) at hVR1 [2] was found to be 820 nM.

As for `CC(=O)Nc1ccccc1-c1ccc2[nH]c(/C=C/c3ccc(C(C)(C)C)cc3)nc2c1` [Cpd 4, (E)-N-(2-{2-[2-(4-tert-butyl-phenyl)-vinyl]-1H-benzimidazol-5-yl}-phenyl)-acetamide], on hVR1 [1], the half-inhibitory concentration (IC50) came to 400 nM and the inhibition at 1 µM amounted to 78%. The same compound showed a Ki at hVR1 [2] of 31 nM.

Turning to `NS(=O)(=O)c1ccccc1-c1ccc2[nH]c(/C=C/c3ccc(F)cc3)nc2c1` [Cpd 434, (E)-2-{2-[2-(4-fluoro-phenyl)-vinyl]-1H-benzimidazol-5-yl}-benzenesulfonamide], on hVR1 [1], the 50% inhibitory concentration (IC50) came to 7 nM and the inhibition at 1 µM was 98%. On hVR1 [2], this compound yielded a Ki of 39 nM.

As for `CC(C)(C)c1ccc(/C=C/c2nc3cc(-c4ccccc4O)ccc3[nH]2)cc1` [Cpd 3, (E)-2-{2-[2-(4-tert-butyl-phenyl)-vinyl]-1H-benzimidazol-5-yl}-phenol], on hVR1 [1], the IC50 amounted to 140 nM. This compound also showed a Ki on hVR1 [2] of 20 nM.

Turning to `CC(C)(C)c1ccc(/C=C/c2nc3cc(-c4ccccc4C(N)=O)ccc3[nH]2)cc1` [Cpd 5, (E)-2-{2-[2-(4-tert-butyl-phenyl)-vinyl]-1H-benzimidazol-5-yl}-benzamide], at hVR1 [1], the concentration for half-maximal inhibition (IC50) came to 71 nM and the inhibition at 1 µM was determined as 100%. Also, the inhibitory constant (Ki) on hVR1 [2] amounted to 17 nM.

In the case of `CC(=O)c1ccccc1-c1ccc2[nH]c(/C=C/c3ccc(F)c(F)c3)nc2c1` [Cpd 27, (E)-1-(2-{2-[2-(3,4-difluoro-phenyl)-vinyl]-1H-benzimidazol-5-yl}-phenyl)-ethanone], at hVR1 [1], the IC50 was 260 nM and the inhibition at 1 µM worked out at 100%. At hVR1 [2], this compound displayed an inhibition constant (Ki) of 1800 nM.

On to `NS(=O)(=O)c1ccccc1-c1ccc2[nH]c(/C=C/c3ccc(Cl)cc3)nc2c1` [Cpd 79, (E)-2-{2-[2-(4-chloro-phenyl)-vinyl]-1H-benzimidazol-5-yl}-benzenesulfonamide], for which, on hVR1 [1], the IC50 is 7 nM and the inhibition at 1 µM turned out to be 100%. The compound also had a Ki on hVR1 [2] of 18 nM.

`CC(C)(C)c1ccc(/C=C/c2nc3cc(-c4ccccc4CO)c(C(F)(F)F)cc3[nH]2)cc1` [Cpd 51, (E)-(2-{2-[2-(4-tert-butyl-phenyl)-vinyl]-6-trifluoromethyl-1H-benzimidazol-5-yl}-phenyl)-methanol]: on hVR1 [1], the concentration for half-maximal inhibition (IC50) was determined as 66 nM and the inhibition at 1 µM is 100%. At hVR1 [2], this compound came in with an inhibition constant Ki of 6.4 nM.

On to `CNS(=O)(=O)c1ccccc1-c1ccc2[nH]c(/C=C/c3ccc(C(F)(F)F)c(F)c3)nc2c1` [Cpd 319, (E)-2-{2-[2-(3-fluoro-4-trifluoromethyl-phenyl)-vinyl]-1H-benzimidazol-5-yl}-N-methyl-benzenesulfonamide], for which, at hVR1 [1], the IC50 was 10 nM and the inhibition at 1 µM came to 100%. For the same compound, at hVR1 [2], the Ki turned out to be 6 nM.

With `CNS(=O)(=O)c1ccccc1-c1ccc2[nH]c(/C=C/c3ccc(Br)cc3)nc2c1` [Cpd 312, (E)-2-{2-[2-(4-bromo-phenyl)-vinyl]-1H-benzimidazol-5-yl}-N-methyl-benzenesulfonamide], at hVR1 [1], the IC50 is 6 nM and the inhibition at 1 µM was 100%. Also, the Ki at hVR1 [2] came to 19 nM.

For `CC(C)(C)c1ccc(/C=C/c2nc3cc(-c4ccccc4NS(C)(=O)=O)ccc3[nH]2)cc1` [Cpd 9, (E)-N-(2-{2-[2-(4-tert-butyl-phenyl)-vinyl]-1H-benzimidazol-5-yl}-phenyl)-methanesulfonamide], at hVR1 [1], the IC50 turned out to be 2 nM and the inhibition at 1 µM came to 99%. In addition, the affinity at hVR1 [2], expressed as Ki, was 0.9 nM.

On to `NS(=O)(=O)c1ccccc1-c1ccc2[nH]c(/C=C/c3ccc(S(=O)(=O)C(F)(F)F)cc3)nc2c1` [Cpd 71, (E)-2-{2-[2-(4-trifluoromethanesulfonyl-phenyl)-vinyl]-1H-benzimidazol-5-yl}-benzenesulfonamide], for which, at hVR1 [1], the IC50 is 22 nM and the inhibition at 1 µM is 99%. Also, the Ki at hVR1 [2] was 22 nM.

In the case of `CC(C)(C)c1ccc(CCc2nc3cc(-c4ccccc4O)ccc3[nH]2)cc1` [Cpd 32, 2-{2-[2-(4-tert-butyl-phenyl)-ethyl]-1H-benzimidazol-5-yl}-phenol], at hVR1 [1], the IC50 was found to be 380 nM and the inhibition at 1 µM amounted to 77%. Further, on hVR1 [2], affinity was put at a Ki of 100 nM.

With `CC(=O)Nc1ccccc1-c1cc2nc(/C=C/c3ccc(C(F)(F)F)cc3)[nH]c2cc1C(F)(F)F` [Cpd 56, (E)-N-(2-{6-trifluoromethyl-2-[2-(4-trifluoromethyl-phenyl)-vinyl]-1H-benzimidazol-5-yl}-phenyl)-acetamide], at hVR1 [1], the IC50 amounted to 110 nM and the inhibition at 1 µM worked out at 100%. Besides, the inhibition constant Ki on hVR1 [2] came to 120 nM.

`CC(=O)c1ccccc1-c1ccc2[nH]c(/C=C/c3ccc(S(=O)(=O)C(F)(F)F)cc3)nc2c1` [Cpd 40, (E)-1-(2-{2-[2-(4-trifluoromethanesulfonyl-phenyl)-vinyl]-1H-benzimidazol-5-yl}-phenyl)-ethanone]: on hVR1 [1], the concentration for half-maximal inhibition (IC50) was found to be 54 nM and the inhibition at 1 µM came out at 99%. Further, at hVR1 [2], the inhibitory constant (Ki) came to 81 nM.

`CC(=O)Nc1ccccc1-c1cc2nc(/C=C/c3ccc(C(C)(C)C)cc3)[nH]c2cc1C(F)(F)F` [Cpd 50, (E)-N-(2-{2-[2-(4-tert-butyl-phenyl)-vinyl]-6-trifluoromethyl-1H-benzimidazol-5-yl}-phenyl)-acetamide]: on hVR1 [1], the half-maximal inhibitory concentration (IC50) turned out to be 100 nM and the inhibition at 1 µM worked out at 100%. Besides, the affinity at hVR1 [2], expressed as Ki, was 16 nM.

With `Oc1ccccc1-c1ccc2[nH]c(/C=C/c3ccc(C(F)(F)F)cc3)nc2c1` [Cpd 14, (E)-2-{2-[2-(4-trifluoromethyl-phenyl)-vinyl]-1H-benzimidazol-5-yl}-phenol], at hVR1 [1], the IC50 stood at 1000 nM and the inhibition at 1 µM came out at 49%. The compound also gave a Ki at hVR1 [2] of 380 nM.

For `NS(=O)(=O)c1ccccc1-c1ccc2[nH]c(/C=C/c3ccc(OC(F)(F)F)cc3)nc2c1` [Cpd 69, (E)-2-{2-[2-(4-trifluoromethoxy-phenyl)-vinyl]-1H-benzimidazol-5-yl}-benzenesulfonamide], at hVR1 [1], the IC50 came out at 6 nM and the inhibition at 1 µM is 98%. The compound further gave an inhibitory constant (Ki) on hVR1 [2] of 6 nM.

Take `CC(C)c1ccc(/C=C/c2nc3cc(-c4ccccc4NS(C)(=O)=O)ccc3[nH]2)cc1` [Cpd 407, (E)-N-(2-{2-[2-(4-isopropyl-phenyl)-vinyl]-1H-benzimidazol-5-yl}-phenyl)-methanesulfonamide]: on hVR1 [1], the half-maximal inhibitory concentration (IC50) was 9 nM and the inhibition at 1 µM amounted to 96%. Besides, the inhibitory constant (Ki) on hVR1 [2] was 5.7 nM.

On to `O=C(CO)c1ccccc1-c1ccc2[nH]c(/C=C/c3ccc(C(F)(F)F)cc3)nc2c1` [Cpd 311, (E)-2-hydroxy-1-(2-{2-[2-(4-trifluoromethyl-phenyl)-vinyl]-1H-benzimidazol-5-yl}-phenyl)-ethanone], for which, at hVR1 [1], the IC50 was 54 nM and the inhibition at 1 µM is 99%.

Take `CC(O)c1ccccc1-c1ccc2[nH]c(/C=C/c3ccc(C(C)(C)C)cc3)nc2c1` (stereo not drawn) [Cpd 2, (E)-1-(2-{2-[2-(4-tert-butyl-phenyl)-vinyl]-1H-benzimidazol-5-yl}-phenyl)-ethanol]: at hVR1 [1], the IC50 worked out at 12 nM and the inhibition at 1 µM was 100%.

As to `CC(C)(O)c1ccccc1-c1ccc2[nH]c([C@@H]3C[C@H]3c3ccc(C(F)(F)F)cc3)nc2c1` [Cpd 501, 2-(2-{2-[(1R,2R)-2-(4-trifluoromethyl-phenyl)-cyclopropyl]-1H-benzimidazol-5-yl}-phenyl)-propan-2-ol], at hVR1 [1], the IC50 is 85 nM and the inhibition at 1 µM was determined as 99%.

As to `NS(=O)(=O)c1ccccc1-c1ccc2[nH]c(/C=C/c3cc(C(F)(F)F)cc(C(F)(F)F)c3)nc2c1` [Cpd 373, (E)-2-{2-[2-(3,5-bis-trifluoromethyl-phenyl)-vinyl]-1H-benzimidazol-5-yl}-benzenesulfonamide], at hVR1 [1], the IC50 amounted to 20 nM and the inhibition at 1 µM stood at 99%.

For `CC(=O)c1ccccc1-c1ccc2[nH]c(/C=C/c3ccc(C(F)(F)F)cc3)nc2c1` [Cpd 15, (E)-1-(2-{2-[2-(4-trifluoromethyl-phenyl)-vinyl]-1H-benzimidazol-5-yl}-phenyl)-ethanone], at hVR1 [1], the IC50 was found to be 120 nM and the inhibition at 1 µM was found to be 100%. This compound also came in with a Ki on hVR1 [2] of 41 nM.

Consider `CC(C)(C)c1ccc(/C=C/c2nc3cc(-c4cccc(C(N)=O)c4)ccc3[nH]2)cc1` [Cpd 6, (E)-3-{2-[2-(4-tert-butyl-phenyl)-vinyl]-1H-benzimidazol-5-yl}-benzamide], for which the inhibition at 1 µM at hVR1 [1] was found to be 12%.

Take `NS(=O)(=O)c1ccccc1-c1ccc2[nH]c(/C=C/c3cc(Br)ccc3F)nc2c1` [Cpd 379, (E)-2-{2-[2-(5-bromo-2-fluoro-phenyl)-vinyl]-1H-benzimidazol-5-yl}-benzenesulfonamide]: on hVR1 [1], the IC50 was 40 nM and the inhibition at 1 µM turned out to be 99%.
